Source: patent publication US20160367578A1, “METHODS AND COMPOSITIONS FOR ERADICATING LEUKEMIC CELLS” (priority 2013, published 2016)
“Also recorded” adds a separate entry of the source. Like-named read-outs stand apart in the source and are kept apart here.

Key:
[1] = system: primary bone marrow leukocytes or primary peripheral blood leukocytes; assay: Viability of normal primary leukocytes exposed to CBX, alone or in 1:1 mixtures (7AAD FACS); assay type: cell-based, mouse; parameters: sensitivity of wild type primary leukocytes from BM or PB: dose or concentration left out as unconfirmed; details: for effect on normal counterparts in 1:1 mixtures with different AML cells: MLL-AF9 clone A/B or HoxA9/Meis1 mixtures
Description: Cells were distinguished by Cd45.1/CD45.2 expression and cell viability was determined by % of 7AAD-negative cells, in FACS analysis.
We then asked how blockage of gap junction intercellular communication affects AML cells, without additional treatment. […] In order to exclude the possibility of clone specific effects, we have repeated the experiments with a different MLL-AF9 clone, generated independently, and also included HoxA9/Meis1 AML cells that represent a different type of AML.

[2] = system: MLL-AF9 cells (murine leukemic cancer stem cells); assay: Colony formation assay (CFU-C) on MLL-AF9 cells; assay type: cell-based, mouse
[3] = system: bone marrow primary leukocytes (normal stem cells); assay: Colony formation assay (CFU-C) on bone marrow primary leukocytes; assay type: cell-based, mouse; details: increasing concentrations of carbenoxolone
primary MLL-AF9 cells = assay: Differentiation assay, Gr-1 and Mac-1 expression in primary MLL-AF9 cells; assay type: cell-based, mouse; parameters: dose or concentration left out as unconfirmed; details: CBX for 16 hours; for differentiation of MLL-AF9 cells: Gr-1/Mac-1 expression
Description: Cell viability was determined by % of 7AAD-negative cells, in FACS analysis. (*p<0.01).
MLL-AF9 AML cells are undifferentiated myeloid progenitors that express both Gr-1 and Mac-1 antigens, whereas mature myeloid cells express either Gr-1 (granulocytes) or Mac-1 (macrophages).

human AML cell line U937 = assay: Neutrophil differentiation (CD66b+/CD14-) by FACS in U937; assay type: cell-based; details: U937, 16 hours
[4] = system: freshly isolated primary human leukocytes; assay: Neutrophil differentiation (CD66b+/CD14-) by FACS in primary human leukocytes; assay type: cell-based; details: 16 hours
[5] = system: human leukemic cancer stem and progenitor cells (THP1, HL60, U937); assay: Colony formation assay (CFU-C) on human leukemic cell lines; assay type: cell-based
[6] = system: freshly isolated primary non-leukemic normal human leukocytes; assay: Colony formation assay (CFU-C) on normal human leukocytes; assay type: cell-based
[7] = system: normal bone marrow mononuclear cells (BM-MNC); assay: Normal bone marrow mononuclear cells in 1:1 mixture with MLL-AF9 cells after CBX; assay type: cell-based, mouse; details: CBX vs PBS
[8] = system: Mac1 in human leukemic cell lines U937, HL60 and THP1; assay: Myelo-marker flow cytometry in CBX-treated human leukemic cell lines; assay type: cell-based; details: human leukemias, CBX 16 h
Source text: FIGS. 34A-34D are bar graphs quantifying myelo-markers CD11b (FIG. 34A), CD14+ (FIG. 34B), CD66b+ (FIG. 34C), and CD66+/CD14+ (FIG. 34D) in CBX-treated primary normal human leukocytes as compared to CBX-treated human leukemic cell lines U937, HL60 and THP1.

MLL-AF9 leukemia [9] = assay: MLL-AF9 leukemia in non-irradiated mice, intraperitoneal CBX with or w/o chemotherapy (survival, IVIS, flow cytometry); assay type: in vivo, mouse
Description: Chemo: cytarabine (100 mg/kg) and doxorubicin (3 mg/kg) to the subject for a period of 3 days, followed by administering cytarabine alone (100 mg/kg) to the subject for a period of 2 days.
Leukemia was induced in mice by intravenously injecting 1 million live MLL-AF9 leukemic cells (expressing GFP and luciferase) into non-irradiated recipients.
We first studied the immediate response of AML cells to induction chemotherapy in a mouse model of human MLL-AF9 leukemia. MLL-AF9 is a fusion protein, encoded by the t(9; 11)(p22; q23) translocation (Krivtsov, et al. 2006 and Sykes, et al., Cell 146, 697-708 (2011)), present in leukemic blasts derived from patients with AML and is associated with poor prognosis (Schoch, et al., Blood 102, 2395-402 (2003)). In order to generate primary MLL-AF9 leukemic cells for our experiments, we introduced the MLL-AF9 oncogene via retroviral transduction into lineage depleted bone marrow cells from B6.SJL mice, as depicted in FIG. 1A. Sorted GFP positive cells were then intravenously injected into sub-lethally irradiated C57B16 recipients and MLL-AF9 GFP-positive leukemic cells were harvested 3 months later, at a terminal stage of disease. In order to synchronize the timing of the treatment and to visualize disease progression, we transduced primary MLL-AF9 GFP-positive cells with Luciferase lentivirus. Then, we selected Luciferase expressing cells with antibiotics and transplanted 1 million double positive leukemic cells into non-irradiated recipients and monitored disease progression by whole body bioluminescence imaging (FIGS. 1A and 1B).
1 week after treatment, mice were imaged and then sacrificed to evaluate treatment outcome.

MLL-AF9 leukemia [10] = system: MLL-AF9 leukemia; parameters: autopsy finding: dose or concentration left out as unconfirmed
gap junctions = details: 100 μM; cited from earlier work
[11] = 75 mg/kg CBX in combination with chemotherapy

## CC1(C)[C@@H](OC(=O)CCC(=O)O)CC[C@]2(C)[C@H]3C(=O)C=C4[C@@H]5C[C@@](C)(C(=O)O)CC[C@]5(C)CC[C@@]4(C)[C@]3(C)CC[C@@H]12 [CBX, Carbenoxolone]
[1]
  cytotoxic effects on normal cells: no cytotoxic effects
[1]; CBX as high as 400 μM, 16 hours
  effect on normal BM leukocytes in 1:1 mixture with MLL-AF9: without affecting the normal cells
[1]; CBX at greater than or equal to 100 μM, 16 hours
  eradication of normal blood cells: not the eradication of normal blood cells
[1]; CBX even at high concentration, 16 hours
  sensitivity of wild type primary leukocytes from BM or PB: not sensitive
[1]; 16 hours
  effect on normal counterparts in 1:1 mixtures with different AML cells: without affecting normal cells; also recorded: without affecting non-leukemic normal counterparts
[1]; 16 hours, listed as carbenoxolone
  effect on normal counterparts in 1:1 mixtures with different AML cells: without affecting non-leukemic normal counterparts
[2]; CBX at greater than or equal to 50 μM
  effect on malignant vs. normal immature stem and progenitor cells (CFU-C): differential effect
[2]; increasing concentrations of carbenoxolone
  effect on murine leukemic cancer stem cells (CFU-C): eradicates murine leukemic cancer stem cells
[3]
  effect on normal stem cells (CFU-C): inducing proliferation of normal stem cells
Primary MLL-AF9 cells
  toxicity to MLL-AF9 cells: not toxic to the cells
  differentiation of MLL-AF9 cells: induces their differentiation into mature granulocytes
Primary MLL-AF9 cells; listed as carbenoxolone
  differentiation of MLL-AF9 cells: promotes differentiation of AML cells into short-lived granulocytes
Human AML cell line U937
  neutrophil differentiation (CD66b+/CD14−): induces rapid (within 16 hours) neutrophil differentiation
[4]
  neutrophil differentiation (CD66b+/CD14−): does not induce neutrophil differentiation
[5]; CBX 100 μM
  effect on human leukemic progenitors (CFU-C): eradicates human leukemic progenitors
[5]; increasing concentrations
  effect on human leukemic cancer stem and progenitor cells (CFU-C): eradicates human leukemic cancer stem and progenitor cells
[6]; CBX 100 μM
  effect on normal progenitors (CFU-C): induces proliferation of normal progenitors
[6]; increasing concentrations
  effect on normal human stem and progenitor cells (CFU-C): inducing proliferation of normal human stem and progenitor cells
[7]
  replenishment of normal healthy cells: enhances the replenishment of normal healthy cells
[8]
  Mac1 expression: downregulated
MLL-AF9 leukemia [9]; 25 mg/kg CBX 24 hours before and throughout 5-days induction chemotherapy
  leukemia status 1 week after treatment (luciferase imaging, flow cytometry): entirely leukemia free
MLL-AF9 leukemia [9]; Carbenoxolone 20 mg/kg in combination with chemotherapy, from Day 27
  survival: prolonged survival
MLL-AF9 leukemia [9]; Carbenoxolone alone, 20 mg/kg 3 or 6 days from Day 27, or 10/20/30 mg/kg ascending from Day 68
  survival: prolonged survival
MLL-AF9 leukemia [9]; IP, 20 mg/kg for 6 days from day 27 (with chemo arm) or 10/20/30 mg/kg ascending from day 68
  survival: prolonged survival
MLL-AF9 leukemia [9]; IP, 50 mg/kg 6 days beginning at day 27
  survival: prolonged survival
MLL-AF9 leukemia [10]; 25 mg/kg CBX alone or in combination with induction chemotherapy
  CBX-treated mice survived: 40%-60%
MLL-AF9 leukemia [10]; 25 mg/kg CBX in combination with induction chemotherapy
  survival vs PBS and chemotherapy controls: no statistically significant difference in survival
MLL-AF9 leukemia [10]; 50 mg/kg CBX alone
  CBX-treated mice survived: 20%
  survival: early mortality with no statistically significant difference
MLL-AF9 leukemia [10]; 50 mg/kg CBX in combination with chemotherapy
  survival vs PBS and chemotherapy controls: significant increased survival
MLL-AF9 leukemia [10]; 75 mg/kg CBX alone
  survival vs PBS controls: significant increased survival
MLL-AF9 leukemia [10]; [11]
  CBX-treated mice survived: 20%
  survival: early mortality with no statistically significant difference
MLL-AF9 leukemia [10]; SC, daily, 14 days
  adverse effect of prolonged administration: lethal pseudo-hyperadlosteronism with no sign of leukemia
MLL-AF9 leukemia [10]; chemotherapy plus 50 mg/kg CBX
  autopsy, signs of leukemia: no signs of leukemia
MLL-AF9 leukemia [10]; mouse that died at day 28 after CBX treatment
  autopsy finding: gastric edema
MLL-AF9 leukemia [10]; mouse, in vivo
  adverse effect of chronic systemic exposure: acute lethal pseudo-hyperaldosteronism in some case
  early mortality: early mortality due to acute lethal pseudo-hyperadlosteronism
MLL-AF9 leukemia [10]; mouse, in vivo, sc
  cause of early mortality: most likely induced by acute pseudo-hyperaldosteronism, and not by leukemia
MLL-AF9 leukemia [10]; mouse, in vivo, sc, 50 mg/kg
  survival: prolonged survival
MLL-AF9 leukemia [10]; mouse, in vivo, sc, 75 mg/kg
  survival: prolonged survival
Gap junctions
  block of cell-cell communication: efficiently blocks cell-cell communication
  cell viability: without affecting cell viability
